Measurements from PubChem BioAssay AID2060619 (Molecular Pharmacology Branch, DTP, NCI, 2025).
Where “and” joins values, the source holds several entries; their conditions need not be identical. Equal entries are not always repeated.

Test system: 323965-272-R-J2-PDC complex spheroid viability
Test: Anticancer human tumor 323965-272-R-J2-PDC patient-derived pancreatic carcinoma cell line growth inhibition [CLK]
Conditions: for viability, T/C: stronger effect = lower value; active means viability on the fitted dose curve at most 10% of control; inactive means the rest
Procedure, shortened: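 Patient-derived tumor cells grown as complex spheroids with HUVEC endothelial cells and mesenchymal stem cells, treated with drug combinations. Concentrations descend in half-log steps from near clinical Cmax, or from 10 microM if Cmax unknown.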

[1] = curve of first compound, second compound 0.0316 µM
[2] = curve of first compound, second compound 0.1 µM
[3] = curve of first compound, second compound 0.316 µM
[4] = curve of first compound, second compound 1 µM
[5] = curve of first compound, second compound 3.16 µM
[6] = curve of first compound, second compound 10 µM
[7] = second compound 0.0316 µM, first compound 0.00316 µM
[8] = second compound 0.0316 µM, first compound 0.01 µM
[9] = second compound 0.0316 µM, first compound 0.0316 µM
[10] = second compound 0.0316 µM, first compound 0.1 µM
[11] = second compound 0.0316 µM, first compound 0.316 µM
[12] = second compound 0.0316 µM, first compound 1 µM
[13] = second compound 0.1 µM, first compound 0.00316 µM
[14] = second compound 0.1 µM, first compound 0.01 µM
[15] = second compound 0.1 µM, first compound 0.0316 µM
[16] = second compound 0.1 µM, first compound 0.1 µM
[17] = second compound 0.1 µM, first compound 0.316 µM
[18] = second compound 0.1 µM, first compound 1 µM
[19] = second compound 0.316 µM, first compound 0.00316 µM
[20] = second compound 0.316 µM, first compound 0.01 µM
[21] = second compound 0.316 µM, first compound 0.0316 µM
[22] = second compound 0.316 µM, first compound 0.1 µM
[23] = second compound 0.316 µM, first compound 0.316 µM
[24] = second compound 0.316 µM, first compound 1 µM
[25] = second compound 1 µM, first compound 0.00316 µM
[26] = second compound 1 µM, first compound 0.01 µM
[27] = second compound 1 µM, first compound 0.0316 µM
[28] = second compound 1 µM, first compound 0.1 µM
[29] = second compound 1 µM, first compound 0.316 µM
[30] = second compound 1 µM, first compound 1 µM
[31] = second compound 3.16 µM, first compound 0.00316 µM
[32] = second compound 3.16 µM, first compound 0.01 µM
[33] = second compound 3.16 µM, first compound 0.0316 µM
[34] = second compound 3.16 µM, first compound 0.1 µM
[35] = second compound 3.16 µM, first compound 0.316 µM
[36] = second compound 3.16 µM, first compound 1 µM
[37] = second compound 10 µM, first compound 0.00316 µM
[38] = second compound 10 µM, first compound 0.01 µM
[39] = second compound 10 µM, first compound 0.0316 µM
[40] = second compound 10 µM, first compound 0.1 µM
[41] = second compound 10 µM, first compound 0.316 µM
[42] = second compound 10 µM, first compound 1 µM
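Further: spheroids exposed to agents for seven days before readout.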
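Wherever viability, T/C is given: percent of DMSO vehicle control wells so 100% = untreated growth.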

CCN1CCN(Cc2ccc(Nc3ncc(F)c(-c4cc(F)c5nc(C)n(C(C)C)c5c4)n3)nc2)CC1 + CNC(=O)c1ccc(Nc2nc(OC3CCCC3)c3c(-c4ccc5nc(C)oc5c4)c[nH]c3n2)c(OC)c1
< 3.16 nM: IC50 [4] | IC50 [5] | IC50 [6]
inactive: viability, T/C [7] 90.3% | viability, T/C [8] 103% | viability, T/C [9] 86.9% | viability, T/C [10] 68.4% | viability, T/C [11] 66.2% | viability, T/C [12] 74.3% | viability, T/C [13] 84.9% | viability, T/C [14] 73.4% | viability, T/C [15] 60.6% | viability, T/C [16] 63.1% | viability, T/C [17] 55.7% | viability, T/C [18] 67.6% | viability, T/C [19] 64.1% | viability, T/C [20] 53.4% | viability, T/C [21] 54.2% | viability, T/C [22] 44.2% | viability, T/C [23] 50.6% | viability, T/C [24] 57.6% | viability, T/C [25] 48.5% | viability, T/C [26] 40.5% | viability, T/C [27] 45.9% | viability, T/C [28] 49.4% | viability, T/C [29] 40.4% | viability, T/C [30] 61.7% | viability, T/C [31] 42.8% | viability, T/C [32] 39.2% | viability, T/C [33] 37.6% | viability, T/C [34] 39.8% | viability, T/C [35] 43.1% | viability, T/C [36] 46.8% | viability, T/C [37] 42.7% | viability, T/C [38] 46.4% | viability, T/C [39] 41.5% | viability, T/C [40] 38.5% | viability, T/C [41] 46% | viability, T/C [42] 48.5%
> 1000 nM: IC50 [1] | IC50 [2] | IC50 [3]

CC(=O)O[C@H]1C(=O)[C@@]2(C)[C@H]([C@H](OC(=O)c3ccccc3)[C@]3(O)C[C@H](OC(=O)[C@H](O)[C@@H](NC(=O)c4ccccc4)c4ccccc4)C(C)=C1C3(C)C)[C@]1(OC(C)=O)CO[C@@H]1C[C@@H]2O
inactive: viability, T/C (compound 0.0316 µM) 35.3% and 32% | viability, T/C (compound 0.1 µM) 36.8% and 34.2% | viability, T/C (compound 0.316 µM) 33.2% and 32.9% | viability, T/C (compound 1 µM) 34.6% and 33.4% | viability, T/C (compound 3.16 µM) 39.6% and 35.1% | viability, T/C (compound 10 µM) 35.9% and 36.3%
< 31.6 nM: IC50 (curve of compound)

COc1cccc2c1C(=O)c1c(O)c3c(c(O)c1C2=O)CC(O)(C(=O)CO)CC3OC1CC(N)C(O)C(C)O1 (centres undefined) + CNC(=O)c1ccc(Nc2nc(OC3CCCC3)c3c(-c4ccc5nc(C)oc5c4)c[nH]c3n2)c(OC)c1
inactive: viability, T/C [9] 69.4% | viability, T/C [10] 38.1% | viability, T/C [11] 41.5% | viability, T/C [12] 28.1% | viability, T/C (second compound 0.0316 µM, first compound 3.16 µM) 19.5% | viability, T/C [15] 73.2% | viability, T/C [16] 44.8% | viability, T/C [17] 39.6% | viability, T/C [18] 28% | viability, T/C (second compound 0.1 µM, first compound 3.16 µM) 19.7% | viability, T/C [21] 48% | viability, T/C [22] 44.1% | viability, T/C [23] 29.9% | viability, T/C [24] 22.7% | viability, T/C (second compound 0.316 µM, first compound 3.16 µM) 13.4% | viability, T/C [27] 40.8% | viability, T/C [28] 30% | viability, T/C [29] 22.7% | viability, T/C [30] 17.4% | viability, T/C [33] 30.6% | viability, T/C [34] 30.9% | viability, T/C [35] 20.8% | viability, T/C [36] 13.7% | viability, T/C [39] 37.2% | viability, T/C [40] 25.6% | viability, T/C [41] 24.2% | viability, T/C [42] 15.4%
< 31.6 nM: IC50 [3] | IC50 [4] | IC50 [5] | IC50 [6]
104 nM: IC50 [1]
active: viability, T/C (second compound 0.0316 µM, first compound 10 µM) 0.64% | viability, T/C (second compound 0.1 µM, first compound 10 µM) 0.62% | viability, T/C (second compound 0.316 µM, first compound 10 µM) 0.67% | viability, T/C (second compound 1 µM, first compound 3.16 µM) 9.89% | viability, T/C (second compound 1 µM, first compound 10 µM) 0.56% | viability, T/C (second compound 3.16 µM, first compound 3.16 µM) 7.23% | viability, T/C (second compound 3.16 µM, first compound 10 µM) 0.56% | viability, T/C (second compound 10 µM, first compound 3.16 µM) 6.06% | viability, T/C (second compound 10 µM, first compound 10 µM) 0.58%
135 nM: IC50 [2]

Cn1ncnc1[C@H]1c2n[nH]c(=O)c3cc(F)cc(c23)N[C@@H]1c1ccc(F)cc1
inactive: viability, T/C (compound 0.000316 µM) 108% and 106% | viability, T/C (compound 0.001 µM) 108% and 97.8% | viability, T/C (compound 0.00316 µM) 101% and 105% | viability, T/C (compound 0.01 µM) 104% and 99.3% | viability, T/C (compound 0.0316 µM) 114% and 94.7% | viability, T/C (compound 0.1 µM) 83.6% and 74.6%
> 100 nM: IC50 (curve of compound)

CCc1c2c(nc3ccc(O)cc13)-c1cc3c(c(=O)n1C2)COC(=O)[C@]3(O)CC + CN1CCN(c2cc(C(=O)Nc3cc4cc(-c5cnn(C)c5)ccc4cn3)ccn2)CC1
inactive: viability, T/C [7] 77.2% | viability, T/C [8] 41.7% | viability, T/C [9] 28.6% | viability, T/C [10] 27.2% | viability, T/C [11] 25.7% | viability, T/C [12] 24.1% | viability, T/C [13] 42.6% | viability, T/C [14] 33.3% | viability, T/C [15] 26% | viability, T/C [16] 24.7% | viability, T/C [17] 20.1% | viability, T/C [18] 19.7% | viability, T/C [19] 22.2% | viability, T/C [20] 23.1% | viability, T/C [21] 18.6% | viability, T/C [22] 20.3% | viability, T/C [23] 19.1% | viability, T/C [24] 6.86%
active: viability, T/C [25] 3.79% | viability, T/C [26] 3.36% | viability, T/C [27] 2.56% | viability, T/C [28] 2.23% | viability, T/C [29] 1.14% | viability, T/C [30] 0.61% | viability, T/C [31] 4.21% | viability, T/C [32] 3.48% | viability, T/C [33] 3.05% | viability, T/C [34] 1.79% | viability, T/C [35] 1.1% | viability, T/C [36] 0.61% | viability, T/C [37] 4.27% | viability, T/C [38] 6.63% | viability, T/C [39] 2.33% | viability, T/C [40] 1.69% | viability, T/C [41] 0.96% | viability, T/C [42] 0.59%
< 3.16 nM: IC50 [2] | IC50 [3] | IC50 [4] | IC50 [5] | IC50 [6]
7.63 nM: IC50 [1]

Cn1ncnc1[C@H]1c2n[nH]c(=O)c3cc(F)cc(c23)N[C@@H]1c1ccc(F)cc1 + CNC(=O)c1ccc(Nc2nc(OC3CCCC3)c3c(-c4ccc5nc(C)oc5c4)c[nH]c3n2)c(OC)c1
inactive: viability, T/C (second compound 0.0316 µM, first compound 0.000316 µM) 126% | viability, T/C (second compound 0.0316 µM, first compound 0.001 µM) 118% | viability, T/C [7] 104% | viability, T/C [8] 110% | viability, T/C [9] 86.8% | viability, T/C [10] 97.1% | viability, T/C (second compound 0.1 µM, first compound 0.000316 µM) 86.2% | viability, T/C (second compound 0.1 µM, first compound 0.001 µM) 75.3% | viability, T/C [13] 78.9% | viability, T/C [14] 85.3% | viability, T/C [15] 76.1% | viability, T/C [16] 66% | viability, T/C (second compound 0.316 µM, first compound 0.000316 µM) 69.6% | viability, T/C (second compound 0.316 µM, first compound 0.001 µM) 66.7% | viability, T/C [19] 55.5% | viability, T/C [20] 67.8% | viability, T/C [21] 70% | viability, T/C [22] 51.6% | viability, T/C (second compound 1 µM, first compound 0.000316 µM) 41.3% | viability, T/C (second compound 1 µM, first compound 0.001 µM) 45.5% | viability, T/C [25] 48.5% | viability, T/C [26] 38.3% | viability, T/C [27] 52% | viability, T/C [28] 43.4% | viability, T/C (second compound 3.16 µM, first compound 0.000316 µM) 36.7% | viability, T/C (second compound 3.16 µM, first compound 0.001 µM) 47.2% | viability, T/C [31] 42.4% | viability, T/C [32] 43.9% | viability, T/C [33] 51.5% | viability, T/C [34] 43.3% | viability, T/C (second compound 10 µM, first compound 0.000316 µM) 37.1% | viability, T/C (second compound 10 µM, first compound 0.001 µM) 36.6% | viability, T/C [37] 42.6% | viability, T/C [38] 45.7% | viability, T/C [39] 43.1% | viability, T/C [40] 43.1%
< 0.316 nM: IC50 [4] | IC50 [5] | IC50 [6]
> 100 nM: IC50 [1] | IC50 [2] | IC50 [3]

CCCS(=O)(=O)Nc1ccc(F)c(C(=O)c2c[nH]c3ncc(-c4ccc(Cl)cc4)cc23)c1F
> 10000 nM: IC50 (curve of compound)
inactive: viability, T/C (compound 0.0316 µM) 105% and 112% | viability, T/C (compound 0.1 µM) 105% and 113% | viability, T/C (compound 0.316 µM) 112% and 123% | viability, T/C (compound 1 µM) 110% and 105% | viability, T/C (compound 3.16 µM) 116% and 99% | viability, T/C (compound 10 µM) 84.8% and 79.7%
